Each molecule was assayed against T1, TF/FVIIa (Homo sapiens, UniProt P08709) (assay: TF/FVIIa inhibition (TF/FVIIa-IC50)). Settings: not given.
T1 construct: Coagulation factor VIIa initiates the extrinsic part of the coagulation cascade
T1 sequence (P08709 61-212): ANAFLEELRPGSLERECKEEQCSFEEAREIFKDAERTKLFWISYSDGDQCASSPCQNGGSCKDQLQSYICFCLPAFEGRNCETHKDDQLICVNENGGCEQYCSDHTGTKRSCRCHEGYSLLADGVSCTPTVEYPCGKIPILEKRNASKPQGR
T1 sequence (P08709 213-466): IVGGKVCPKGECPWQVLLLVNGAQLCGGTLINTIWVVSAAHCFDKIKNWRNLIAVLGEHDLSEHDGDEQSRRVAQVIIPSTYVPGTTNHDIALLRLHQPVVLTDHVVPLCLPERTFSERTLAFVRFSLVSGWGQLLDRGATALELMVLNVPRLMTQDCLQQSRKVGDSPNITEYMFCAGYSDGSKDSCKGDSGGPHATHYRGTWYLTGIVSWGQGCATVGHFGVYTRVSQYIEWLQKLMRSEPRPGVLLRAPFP
T1 sequence (P13726 33-295, further chain): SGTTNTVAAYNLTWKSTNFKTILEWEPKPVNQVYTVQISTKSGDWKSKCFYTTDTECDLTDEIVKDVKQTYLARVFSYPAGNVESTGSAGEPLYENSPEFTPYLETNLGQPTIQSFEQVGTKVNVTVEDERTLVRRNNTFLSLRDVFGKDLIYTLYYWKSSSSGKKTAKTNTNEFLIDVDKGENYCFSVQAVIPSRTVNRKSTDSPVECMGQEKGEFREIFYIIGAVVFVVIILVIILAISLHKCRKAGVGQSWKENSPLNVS
Format: biochemical
For `C#Cc1ccc(NC(=O)N2C[C@H](OC)C[C@@H]2C(=O)Nc2ccc(-n3ccccc3=O)cc2)cc1` [Compound A1, 1-[(4-ethynylphenyl)]-2-{[4-(2-oxo-2H-pyridin-1-yl)phenyl]}-(2R,4R)-4-methoxypyrrolidine-1,2-dicarboxamide], the IC50 was 1.9 nM.
`C#Cc1ccc(NC(=O)N2C[C@H](OC)C[C@@H]2C(=O)Nc2ccc(N3CCOCC3=O)cc2)cc1` [Compound A2, 1-[(4-ethynylphenyl)]-2-{[4-(3-oxomorpholin-4-yl)phenyl]}-(2R,4R)-4-methoxypyrrolidine-1,2-dicarboxamide] gave an IC50 of 3.2 nM.

What follows are molecules tested against FXa (Homo sapiens, UniProt P00742) (assay: Factor Xa inhibition (FXa-IC50)). Settings: not given.
FXa, sequence (P00742 235-488 limits assumed): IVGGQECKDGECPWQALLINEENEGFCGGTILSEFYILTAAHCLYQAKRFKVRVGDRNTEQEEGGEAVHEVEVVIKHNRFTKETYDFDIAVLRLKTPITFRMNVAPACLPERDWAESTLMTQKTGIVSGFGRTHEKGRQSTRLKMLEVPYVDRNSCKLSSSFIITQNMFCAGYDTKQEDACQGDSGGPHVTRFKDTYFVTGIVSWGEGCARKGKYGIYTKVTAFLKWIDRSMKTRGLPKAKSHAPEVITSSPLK
FXa, sequence (P00742 41-179 partner limits assumed): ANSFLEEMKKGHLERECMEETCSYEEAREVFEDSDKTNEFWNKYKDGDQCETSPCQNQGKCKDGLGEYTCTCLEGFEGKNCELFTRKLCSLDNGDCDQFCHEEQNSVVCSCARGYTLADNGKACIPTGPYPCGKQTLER
Format: biochemical
In the case of `C#Cc1ccc(NC(=O)N2C[C@H](OC)C[C@@H]2C(=O)Nc2ccc(-n3ccccc3=O)cc2)cc1` [Compound A1, 1-[(4-ethynylphenyl)]-2-{[4-(2-oxo-2H-pyridin-1-yl)phenyl]}-(2R,4R)-4-methoxypyrrolidine-1,2-dicarboxamide], the IC50 is reported as 1.3 nM.
`C#Cc1ccc(NC(=O)N2C[C@H](OC)C[C@@H]2C(=O)Nc2ccc(N3CCOCC3=O)cc2)cc1` [Compound A2, 1-[(4-ethynylphenyl)]-2-{[4-(3-oxomorpholin-4-yl)phenyl]}-(2R,4R)-4-methoxypyrrolidine-1,2-dicarboxamide] gave an IC50 of 3.1 nM.

Same assay, conditions: read-out: FXa-IC50
In the case of `C#Cc1ccc(NC(=O)N2CC(OCC)CC2C(=O)Nc2ccc(N3CCCCC3=O)cc2)cc1` [Compound A4-1, 1-[(4-ethynylphenyl)]-2-{[4-(2-oxopiperidin-1-yl)phenyl]}-(2R,4R)-4-ethoxypyrrolidine-1,2-dicarboxamide], the IC50 is reported as 3 nM.
In the case of `C#Cc1ccc(NC(=O)N2CC(OCC)CC2C(=O)Nc2ccc(-n3ccccc3=O)c(F)c2)cc1` [Compound A4-2, 1-[(4-ethynylphenyl)]-2-{[3-fluoro-4-(2-oxo-2H-pyridin-1-yl)phenyl]}-(2R,4R)-4-ethoxypyrrolidine-1,2-dicarboxamide], the IC50 is reported as 1.9 nM.
`C#Cc1ccc(NC(=O)N2CC(O)CC2C(=O)Nc2ccc3c(c2)CCN3C(C)=O)cc1` [Compound A4-3, 1-[(4-ethynylphenyl)]-2-{[1-acetyl-2,3-dihydro-1H-indol-5-yl]}-(2R,4R)-4-hydroxypyrrolidine-1,2-dicarboxamide] gave an IC50 of 2600 nM.
With `C#Cc1ccc(NC(=O)N2CC(OC)CC2C(=O)Nc2ccc(-n3ccccc3=O)c(OC)c2)cc1` [Compound A4-4, 1-[(4-ethynylphenyl)]-2-{[3-methoxy-4-(2-oxo-2H-pyridin-1-yl)phenyl]}-(2R,4R)-4-methoxypyrrolidine-1,2-dicarboxamide] the IC50 was 2.8 nM.
`C#Cc1ccc(NC(=O)N2CC(OCC=C)CC2C(=O)Nc2ccc(N3CCOCC3=O)cc2)cc1` [Compound A4-5, 1-[(4-ethynylphenyl)]-2-{[4-(3-oxomorpholin-4-yl)phenyl]}-(2R,4R)-4-allyloxypyrrolidine-1,2-dicarboxamide] showed an IC50 of 3.1 nM.
Molecule `C#CCO[C@@H]1C[C@H](C(=O)Nc2ccc(N3CCOCC3=O)cc2)N(C(=O)Nc2ccc(C#C)cc2)C1` [Compound A4-6, 1-[(4-ethynylphenyl)]-2-{[4-(3-oxomorpholin-4-yl)phenyl]}-(2R,4R)-4-propargyloxypyrrolidine-1,2-dicarboxamide] has an IC50 of 1.3 nM.
With `C#Cc1ccc(NC(=O)N2CC(OCC(O)CO)CC2C(=O)Nc2ccc(N3CCOCC3=O)cc2)cc1` [Compound A4-7, 1-[(4-ethynylphenyl)]-2-{[4-(3-oxomorpholin-4-yl)phenyl]}-(2R,4R)-4-(2,3-dihydroxypropoxy)pyrrolidine-1,2-dicarboxamide] the IC50 was 3.1 nM.
`C#Cc1ccc(NC(=O)N2CC(OC)CC2C(=O)Nc2ccc(N3CC(O)CC3C(=O)OC)cc2)cc1` [Compound A4-8, 1-[(4-ethynylphenyl)]-2-{[4-(2-methoxycarbonyl-4-hydroxypyrrolidin-1-yl)phenyl]}-(2R,4R)-4-methoxypyrrolidine-1,2-dicarboxamide] gave an IC50 of 1100 nM.
`C#Cc1ccc(NC(=O)N2C[C@H](OCCOC)C[C@@H]2C(=O)Nc2ccc(N3CCOCC3=O)cc2)cc1` [Compound A4-9, 1-[(4-ethynylphenyl)]-2-{[4-(3-oxomorpholin-4-yl)phenyl]}-(2R,4R)-4-(methoxyethoxy)pyrrolidine-1,2-dicarboxamide] was tested, and the IC50 was 3.3 nM.
Work on `C#Cc1ccc(NC(=O)N2C[C@H](OCC(=O)OC)C[C@@H]2C(=O)Nc2ccc(N3CCOCC3=O)cc2)cc1` [Compound A4-10, 1-[(4-ethynylphenyl)]-2-{[4-(3-oxomorpholin-4-yl)phenyl]}-(2R,4R)-4-(methoxycarbonylmethoxy)pyrrolidine-1,2-dicarboxamide] yielded an IC50 of 4.2 nM.
With `C#Cc1ccc(NC(=O)N2C[C@H](OCC(=O)O)C[C@@H]2C(=O)Nc2ccc(N3CCOCC3=O)cc2)cc1` [Compound A4-11, 1-[(4-ethynylphenyl)]-2-{[4-(3-oxomorpholin-4-yl)phenyl]}-(2R,4R)-4-(carboxymethoxy)pyrrolidine-1,2-dicarboxamide] the IC50 was 4.8 nM.
With `C#Cc1ccc(NC(=O)N2C[C@H](OC)C[C@@H]2C(=O)Nc2ccc(-n3nc(C)ccc3=O)cc2)cc1` [Compound A4-12, 1-[(4-ethynylphenyl)]-2-{[4-(6-methyl-3-oxo-2H-pyridazin-2-yl)phenyl]}-(2R,4R)-4-methoxypyrrolidine-1,2-dicarboxamide] the IC50 was 2100 nM.

Source: US7557222B2, “1-[(4-Ethynylphenyl)]-2-[(phenyl)]-pyrrolidine-1,2-dicarboxamide derivatives as inhibitors of coagulation factors Xa and VIIa for the treatment of thrombosis” (priority 2003, dated 2009)
